Measured values taken from patent EP0856015B1, “NEW POLYACRYLAMIDE MATRICES IN ELECTROPHORETIC AND CHROMATOGRAPHIC TECHNIQUES” (RIGHETTI, Pier Giorgio, priority 1995, dated 1997).

Experiments:
[1] = Partitioning of monomers between water and n-octanol, aqueous phase analysed by CZE; type: physicochemical; conditions: 2 mM monomer, 25°C
Method: To that aim, aqueous solutions of these monomers have been subjected to partitioning against n-octanol. After partitioning, the aqueous phase is analyzed by capillary electrophoresis and the molar ratio of the various monomers in the two phases determined. […] Hydrophobicity scale of acrylamide and N-substituted derivatives. Each monomer was dissolved in aqueous solution (3.5 mL) at a concentration of 2 mM and mixed with an equal volume of n-octanol for 2 min. After phase separation, the aqueous solution is centrifuged for 75 min at 2000 rpm. All operations at 25°C. The solution, after dilution, is added with internal standard (2.5 mM of pK 9.3 Immobiline) and analyzed by CZE. For abbreviations see Fig. 1. Other abbreviations: MMA: […] ACM: N-acryloyl morpholine; […]: dideoxy […].

[2] = Hydrolysis kinetics of free monomers under mild alkaline conditions, residual monomer quantified by capillary electrophoresis; conditions: 0.1N NaOH, 70°C

| SMILES | hydrophilicity (from partition coefficients P) [1] | logP ([1]; read-out: partition coefficient P (converted)) | degradation kinetics [2] | hydrolysis constant (K) [2] [M⁻¹ s⁻¹] | hydrolysis constant, times smaller than that of acrylamide [2] [times] |
| --- | --- | --- | --- | --- | --- |
| C=CC(=O)NCCCCO [AAB] | close to that of acrylamide | -0.62 |  |  |  |
| C=CC(=O)NCCCO [AAP] | twice as hydrophilic as acrylamide |  | first order kinetics | 0.00013 | 8 |
| C=CC(=O)N1CCOCC1 [N-acryloyl morpholine, reference compound] |  |  | a more rapid degradation kinetic |  |  |
| C=CC(=O)NC(CO)(CO)CO [Trisacryl, N-acryloyl-2-amino-2-hydroxymethyl-1,3 propandiol, reference compound] | by far the most hydrophilic molecule |  | zero-order kinetics |  |  |
